In patent US20090023773A1, “COMPOSITIONS AND METHODS FOR MODULATING GATED ION CHANNELS” (PainCeptor Pharma Corporation, priority 2007, published 2009):

Experiments:
[1] = system: acute paw inflammation caused by intraplantar injection of λ-carrageenan; test: Carrageenan model for pain (Example 8); assay type: in vivo; settings: rat, 30 and 100 mg/kg SC, 4 h post-carrageenan
Experimental: Acute inflammatory hyperalgesia is induced in rats by unilateral injection of 150 μl of a 3% solution of λ-carrageenan into the plantar surface of the left hind paw 3-5 hours prior to testing. Thermal hyperalgesia, mechanical allodynia, mechanical hyperalgesia, weight bearing asymmetry and paw inflammation were determined. Rats are pretreated with test compounds either administered intravenously (IV), by subcutaneous injection (SC) or by oral gavage (PO).
Thermal nociceptive thresholds are determined according to the method described elsewhere (Hargreaves et al., 1988). Briefly, through the glass surface, a radiant heat source (8V, 50 W projector bulb) is focused onto the plantar surface of the hind paw. The rat's paw-withdrawal latency to this stimulus is recorded to the nearest 0.1 s. Each latency score is an average of three trials, which are separated by at least 5 min. In all rats, both the injured and uninjured hind paws are similarly tested, allowing direct comparisons between inflamed and non-inflamed paws. […]
Mechanical hyperalgesia is determined by measuring the difference of withdrawal thresholds in response to increasing pressure in the inflamed vs contralateral paw using the Randall-Sellito Paw pressure meter (IITC Life Science) (Randall L O and Sellito J J., 1957). Briefly, rats are held in a contention jacket suspended by a stand and allowed to acclimate for 10 min. Then the tips of the paw pressure applicator are positioned close to the middle of the plantar and the dorsal area of the paw, avoiding the saphenous nerve innervations and an increasing pressure is applied until the rat removes it. Measures are performed in triplicate for each paw by alternating each paw with an interval of at least 1 min to avoid sensitization. […]
Carrageenan induced paw oedema is measured with a plethysmometer (IITC Life Science). Briefly, a mark is made on the ankles of the rat and the ipsi and contralateral paw are submerged 3 times into water up to the mark in order to determine the paw volume by calculation of water displacement.

[2] = target: T1, hASIC2a/3 steady state (window) current (Homo sapiens, UniProt Q16515+Q9UHC3); test: ASIC2a/3 assay, automated two-electrode voltage clamp in oocytes microinjected with hASIC2a and hASIC3 (Example 2); assay type: cell-based; settings: 50 μM, perfusion at pH 6.5; FIG. 8
T1 construct: expressed in transfected cells; host or cells: Xenopus laevis oocytes, cRNA microinjection, 1:1 mass ratio
T1 sequence (Q16515 1-512): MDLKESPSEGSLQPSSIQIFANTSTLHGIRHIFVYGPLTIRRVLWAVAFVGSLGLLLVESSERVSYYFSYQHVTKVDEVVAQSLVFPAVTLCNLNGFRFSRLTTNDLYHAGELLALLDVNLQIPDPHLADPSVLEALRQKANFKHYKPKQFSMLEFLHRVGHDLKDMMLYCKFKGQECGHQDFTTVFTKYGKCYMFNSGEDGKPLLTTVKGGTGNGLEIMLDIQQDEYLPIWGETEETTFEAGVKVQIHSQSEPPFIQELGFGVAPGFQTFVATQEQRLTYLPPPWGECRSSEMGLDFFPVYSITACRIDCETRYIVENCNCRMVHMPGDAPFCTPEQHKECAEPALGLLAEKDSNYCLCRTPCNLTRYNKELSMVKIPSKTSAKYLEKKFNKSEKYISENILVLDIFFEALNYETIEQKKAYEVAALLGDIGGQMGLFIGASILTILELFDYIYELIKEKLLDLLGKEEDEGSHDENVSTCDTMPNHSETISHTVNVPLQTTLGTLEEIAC
T1 sequence (Q9UHC3 1-531): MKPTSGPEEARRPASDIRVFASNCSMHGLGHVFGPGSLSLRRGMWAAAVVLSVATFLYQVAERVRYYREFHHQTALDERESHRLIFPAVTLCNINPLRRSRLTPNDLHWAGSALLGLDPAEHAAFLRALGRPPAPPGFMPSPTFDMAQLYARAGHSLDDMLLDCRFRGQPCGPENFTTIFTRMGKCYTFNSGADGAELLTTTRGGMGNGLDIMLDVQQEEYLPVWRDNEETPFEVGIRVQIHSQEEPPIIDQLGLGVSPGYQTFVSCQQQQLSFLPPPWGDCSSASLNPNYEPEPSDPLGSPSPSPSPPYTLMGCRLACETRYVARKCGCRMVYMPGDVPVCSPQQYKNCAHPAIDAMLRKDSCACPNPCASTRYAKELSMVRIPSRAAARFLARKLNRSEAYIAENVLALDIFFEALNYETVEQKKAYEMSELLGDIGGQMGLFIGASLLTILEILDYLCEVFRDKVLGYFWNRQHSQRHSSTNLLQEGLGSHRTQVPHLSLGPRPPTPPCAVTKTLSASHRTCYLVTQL
Experimental: The ASIC2a/3 assay involves methods and procedures commonly in use and have been extensively described in the literature.
Briefly, a mature female frog is placed on its back after anesthesia, 20 min in 0.1% (w/v) Tricaine (Sigma), and incision is made on the lower abdomen through the skin, muscle and into the peritoneum. Lobes of ovaries are pulled out with forceps, cut and placed in a solution of Ca^2+-free Barth's with 1% (w/v) collagenase Type I (Sigma) added, for 90 minutes. The dissociated eggs are then washed with complete Barth's, supplementd with […] Gentamycin.
Plasmids containing cDNA for ASIC2a+ASIC3 are linearized and used for cRNA synthesis. The synthesis is done according to the protocol insert of the synthesis kit (e.g. Message Machine, Ambion). The final resuspension of the cRNA is made to provide a concentration of 1 μg/μL. The cDNA's for hASIC2a and hASIC3 are mixed with a 1:1 mass ratio and injected at […] per oocyte. Micro-injected oocytes start expressing hASIC2a3 specific current after 24 h.
The oocytes micro-injected with hASIC2a and hASIC3 cRNA's are placed in the recording chambers of the automated rig and then impaled with the voltage and current micro-electrodes. […] The voltage and current for each oocyte is recorded in one pass during both applications for later analysis. […]

| inhibition of the ASIC 2a/3 current [2] | SMILES | mechanical hyperalgesia ([1]; 1 min prior to carrageenan) | size of the inflammation ([1]; 1 min prior to carrageenan) | thermal hyperalgesia ([1]; 1 min prior to carrageenan) | mechanical hyperalgesia ([1]; 30 min prior to carrageenan) | size of the inflammation ([1]; 30 min prior to carrageenan) | thermal hyperalgesia ([1]; 30 min prior to carrageenan) |
| --- | --- | --- | --- | --- | --- | --- | --- |
|  | Cc1cc(OC2CCN(Cc3ccccc3)CC2)c2cc(O)ccc2n1 [Compound 13, 4-(1-benzylpiperidin-4-yloxy)-2-methylquinolin-6-ol] | dose-dependently reversed | reduced | dose-dependently reversed |  |  |  |
| specific inhibition | Cc1ccc(-c2nc(Nc3ccc(C(=O)O)cc3)c3cc(Cl)ccc3n2)cc1 [Compound 124] |  |  |  | dose-dependently reversed | reduced | dose-dependently reversed |
